# Measurements reported in patent publication US20120059162A1, “FUSED IMIDAZOLE DERIVATIVE HAVING TTK INHIBITORY ACTION” (Oncotherapy Science, Inc., priority 2009, published 2012).
# Where two headings read alike, the source gives them in different places.
# Columns and labels:
# TTK = biological target: T1, TTK (Homo sapiens, UniProt P33981); assay: TTK assay: screening of TTK kinase activity suppressing action using p38 MAPK peptide; assay type: biochemical; conditions: read-out: TTK IC50
# T1 sequence (P33981 1-857): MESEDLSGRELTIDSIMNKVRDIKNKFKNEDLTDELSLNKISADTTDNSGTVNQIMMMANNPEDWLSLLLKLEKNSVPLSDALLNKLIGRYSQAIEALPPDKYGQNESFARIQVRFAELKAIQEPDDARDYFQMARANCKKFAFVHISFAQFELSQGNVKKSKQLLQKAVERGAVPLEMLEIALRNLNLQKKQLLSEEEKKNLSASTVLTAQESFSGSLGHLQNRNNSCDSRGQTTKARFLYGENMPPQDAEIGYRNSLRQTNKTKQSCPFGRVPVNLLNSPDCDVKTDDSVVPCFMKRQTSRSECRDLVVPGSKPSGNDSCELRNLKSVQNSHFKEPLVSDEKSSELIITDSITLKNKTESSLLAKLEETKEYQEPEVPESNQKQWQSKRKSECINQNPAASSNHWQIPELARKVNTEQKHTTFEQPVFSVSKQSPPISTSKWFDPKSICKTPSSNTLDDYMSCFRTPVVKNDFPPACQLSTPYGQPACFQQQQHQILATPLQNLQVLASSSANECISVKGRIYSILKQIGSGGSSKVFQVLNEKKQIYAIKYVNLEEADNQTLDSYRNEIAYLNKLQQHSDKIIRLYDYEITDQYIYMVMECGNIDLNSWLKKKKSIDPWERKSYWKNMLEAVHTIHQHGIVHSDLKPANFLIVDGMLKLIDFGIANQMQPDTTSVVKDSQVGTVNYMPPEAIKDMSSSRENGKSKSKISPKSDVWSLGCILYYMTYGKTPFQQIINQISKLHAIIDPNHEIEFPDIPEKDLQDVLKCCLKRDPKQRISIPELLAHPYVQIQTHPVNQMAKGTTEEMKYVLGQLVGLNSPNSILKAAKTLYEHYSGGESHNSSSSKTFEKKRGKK
# Method: Screening of a compound having a TTK kinase activity suppressing action using p38 MAPK peptide
# A test substance 1.0 μL (solvent: 10% (v/v) DMSO), TTK solution 5 μL (composition: 4 μg/ml TTK, 25 mM Tris-HCl, pH7.5, 5 mM β-glycerophosphate, 2 mM DTT, 0.1 mM Na3VO4, 5 mM MgCl2, 0.1% (w/v)BSA) and a substrate solution 5 μL (composition: 60 μM p38 MAPK peptide, 60 μM ATP, 25 mM Tris-HCl, pH7.5, 5 mM β-glycerophosphate, 2 mM DTT, 0.1 mM Na3VO4, 5 mM MgCl2, 0.1% (w/v)BSA) were mixed in the wells of a 384-well microtiter plate (manufactured by Corning Incorporated) made of polypropylene and loaded in a constant temperature and humidity room.
# From the resultant mixture, an aliquot of 1.7 μL was taken out and mixed with the reaction terminating solution (60 μl) in the wells of a 384-well microtiter plate (manufactured by Corning Incorporated) made of polypropylene. Thereafter, 40 μL of the mixture was transferred to a 384-well black NeutrAvidin plate (PIERCE), sealed and incubated under room temperature for 30 minutes. […] Similarly, the plate was washed with TTBS (100 μL) three times, 40 μl of a secondary antibody solution (Eu-N1 labeled Anti-mouse IgG (Perkin Elmer, #AD0124)) was added and incubated under room temperature for 30 minutes. After the plate was washed with TTBS (100 μL) five times, 40 μL of an enhance solution (Perkin Elmer) was added and incubated under room temperature for 5 minutes. […] Based on the fluorescence value in the absence of a test substance, the suppression activity of a test substance was measured.
# A549 = A549 assay: screening of cancer cell growth inhibiting compound; assay type: cell-based; conditions: Homo sapiens, A549 cells, read-out: A549 IC50
# How it was run: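 A549 cells (1×10^4/ml) in D-MEM with 10% FBS were pre-incubated one day at 37 °C, then exposed to compound dilutions for three further days. Viable cell number read by WST-8 (1–4 hours), absorbance 450 nm (reference 620 nm); inhibition calculated relative to untreated wells.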
Compound,IC50 (TTK; p38 MAPK peptide substrate),"IC50 (A549; 72 h, three days, WST-8)",IC50 (TTK),IC50 (A549; values given as IC50 intervals)
N#Cc1ccc(-c2cn3c(-c4ccc(C(=O)NC5CC5)cc4)cnc3c(NCc3nccs3)n2)cc1 [Example 1-220],19.6 nM,50 to 500 nM,,
O=C(NC1CC1)c1ccc(-c2cnc3c(NCC4CCOCC4)cc(N4CCCCS4(=O)=O)nn23)cc1 [Example 2-40],7.5 nM,50 to 500 nM,,
N#Cc1ccc(-c2cn3c(-c4ccc(C(=O)NC5CC5)cc4)cnc3c(NCCSCCO)n2)cc1 [Example 1-214],6.7 nM,50 to 500 nM,,
O=C(NC1CC1)c1ccc(-c2cnc3c(NCC4CCOCC4)cc(N4CCCC4=O)nn23)cc1 [Example 2-39],22 nM,50 to 500 nM,,
N#Cc1ccc(-c2cn3c(-c4ccc(C(=O)NC5CC5)cc4)cnc3c(NCCOCCO)n2)cc1 [Example 1-217],48.9 nM,1000 to 10000 nM,,
NC1CCCCC1Oc1cc(NCC2CCOCC2)c2ncc(-c3ccc(C(=O)NC4CC4)cc3)n2n1 (stereo not shown) [Example 2-189],,,8.6 nM,500 to 1000 nM
O=C(NC1CC1)c1ccc(-c2cnc3c(NCC4CCOCC4)cc(Oc4ccc(Cl)cc4)nn23)cc1 [Example 2-93],3.3 nM,50 to 500 nM,,
O=C(NC1CC1)c1ccc(-c2cnc3c(NCC4CCOCC4)cc(Oc4cccc(Cl)c4)nn23)cc1 [Example 2-114],2.5 nM,50 to 500 nM,,
CC1(Oc2cc(NCC3CCOCC3)c3ncc(-c4ccc(C(=O)NC5CC5)cc4)n3n2)CCCC1 [Example 2-192],,,2.1 nM,50 to 500 nM
N#Cc1ccc(-c2cn3c(-c4ccc(C(=O)NC5CC5)cc4)cnc3c(NCCN3CCOCC3)n2)cc1 [Example 1-216],20.4 nM,50 to 500 nM,,
CC(C)Oc1cc(NCC2CCOCC2)c2ncc(-c3ccc(C(=O)NC4CC4)cc3)n2n1 [Example 2-178],,,7.1 nM,50 to 500 nM
O=C(NC1CC1)c1ccc(-c2cnc3c(NCC4CCS(=O)(=O)CC4)cc(NC4CCCCC4)nn23)cc1 [Example 2-146],3.8 nM,500 to 1000 nM,,
O=C(NC1CC1)c1ccc(-c2cnc3c(NCC4CCOCC4)cc(Oc4cccc(F)c4O)nn23)cc1 [Example 2-117],2.9 nM,≤ 50 nM,,
O=C(NC1CC1)c1ccc(-c2cnc3c(NCc4ccncc4)cc(NC4CCCCC4)nn23)cc1 [Example 2-155],4.1 nM,50 to 500 nM,,
CCCC(C)Nc1cc(NCC2CCOCC2)c2ncc(-c3ccc(C(=O)NC4CC4)cc3)n2n1 (stereo not shown) [Example 2-58],5.5 nM,50 to 500 nM,,
CC(C)(Oc1cc(NCC2CCOCC2)c2ncc(-c3ccc(C(=O)NC4CC4)cc3)n2n1)C(F)(F)F [Example 2-185],,,2.7 nM,50 to 500 nM
CC(C)CNc1cc(NCC2CCOCC2)c2ncc(-c3ccc(C(=O)NC4CC4)cc3)n2n1 [Example 2-22],6.2 nM,50 to 500 nM,,
O=C(NC1CC1)c1ccc(-c2cnc3c(NCC4CCOCC4)cc(OC4C5CC6CC(C5)CC4C6)nn23)cc1 (stereo not shown) [Example 2-191],,,3.9 nM,50 to 500 nM
CCCNc1cc(NC2CCCCC2)nn2c(-c3ccc(C(=O)NC4CC4)cc3)cnc12 [Example 2-141],7 nM,50 to 500 nM,,
CN(c1cc(NCC2CCOCC2)c2ncc(-c3ccc(C(=O)NC4CC4)cc3)n2n1)C1CCCC1 [Example 2-28],3.7 nM,50 to 500 nM,,
O=C(NC1CC1)c1ccc(-c2cnc3c(NCC4CCOCC4)cc(C=C4CCCC4)nn23)cc1 [Example 2-209],,,8.2 nM,50 to 500 nM
O=C(NC1CC1)c1ccc(-c2cnc3c(NCC4CCOCC4)cc(Oc4ccccc4C(F)(F)F)nn23)cc1 [Example 2-96],7.5 nM,50 to 500 nM,,

Compound,IC50 (TTK; p38 MAPK peptide substrate),"IC50 (A549; 72 h, three days, WST-8)",IC50 (TTK),IC50 (A549; values given as IC50 intervals)
COCCNc1cc(NCC2CCOCC2)c2ncc(-c3ccc(C(=O)NC4CC4)cc3)n2n1 [Example 2-18],18.4 nM,50 to 500 nM,,
N#Cc1ccc(-c2cn3c(-c4ccc(C(=O)NC5CC5)cc4)cnc3c(NCCC3CCOCC3)n2)cc1 [Example 1-221],9.5 nM,50 to 500 nM,,
"O=C(NC1CC1)c1ccc(-c2cc(NCC3CCOCC3)c3ncc(-c4ccc(C(=O)NC5CC5)cc4)n3n2)cc1 [Example 2-6, 4,4′-(8-((Tetrahydro-2H-pyran-4-yl)methylamino)imidazo[1,2-b]pyridazine-3,6-diyl)bis(N-cyclopropylbenzamide)]",11.9 nM,50 to 500 nM,,
O=C(NC1CC1)c1ccc(-c2cnc3c(NCC(F)(F)F)cc(NC4CCCCC4)nn23)cc1 [Example 2-145],3 nM,50 to 500 nM,,
CC(C)(C)Oc1cc(NCC2CCOCC2)c2ncc(-c3ccc(C(=O)NC4CC4)cc3)n2n1 [Example 2-182],,,8.4 nM,50 to 500 nM
CCC(C)(C)Nc1cc(NCC2CCOCC2)c2ncc(-c3ccc(C(=O)NC4CC4)cc3)n2n1 [Example 2-68],2.9 nM,≤ 50 nM,,
CC(CO)CNc1cc(NC2CCCCC2)nn2c(-c3ccc(C(=O)NC4CC4)cc3)cnc12 (stereo not shown) [Example 2-168],,,3.3 nM,50 to 500 nM
CN1CCN(c2cc(NCC3CCOCC3)c3ncc(-c4ccc(C(=O)NC5CC5)cc4)n3n2)CC1 [Example 2-15],25.7 nM,50 to 500 nM,,
O=C(NC1CC1)c1ccc(-c2cnc3c(NCC4CCOCC4)cc(NC45CC6CC(CC(C6)C4)C5)nn23)cc1 [Example 2-64],1.9 nM,≤ 50 nM,,
O=C(NC1CC1)c1ccc(-c2cnc3c(NCC4CCC4)cc(NC4CCCCC4)nn23)cc1 [Example 2-128],7.4 nM,50 to 500 nM,,
O=C(NC1CC1)c1ccc(-c2cnc3c(NCC4CCOCC4)cc(NC4CCCC4)nn23)cc1Cl [Example 2-230],,,4.3 nM,≤ 50 nM
O=C(NC1CC1)c1ccc(-c2cnc3c(NCC4CCOCC4)cc(CC4CCCC4)nn23)cc1 [Example 2-210],,,20.3 nM,1000 to 10000 nM
CCC(CC)CNc1cc(NC2CCCCC2)nn2c(-c3ccc(C(=O)NC4CC4)cc3)cnc12 [Example 2-133],6.8 nM,50 to 500 nM,,
O=C(NC1CC1)c1ccc(-c2cnc3c(NCC4CCOCC4)cc(NC4CCCOC4)nn23)cc1 (stereo not shown) [Example 2-83],5.2 nM,50 to 500 nM,,
COCC(C)Nc1cc(NCC2CCOCC2)c2ncc(-c3ccc(C(=O)NC4CC4)cc3)n2n1 (stereo not shown) [Example 2-52],17.8 nM,50 to 500 nM,,
CC(C)(Nc1cc(NCC2CCOCC2)c2ncc(-c3ccc(C(=O)NC4CC4)c(Cl)c3)n2n1)C(F)(F)F [Example 2-220],,,3.9 nM,≤ 50 nM
CCN(c1cc(NCC2CCOCC2)c2ncc(-c3ccc(C(=O)NC4CC4)cc3)n2n1)C1CCCC1 [Example 2-27],6 nM,50 to 500 nM,,
O=C(NC1CC1)c1ccc(-c2cnc3c(NCC4CCOCC4)cc(OC45CC6CC(CC(C6)C4)C5)nn23)cc1 [Example 2-193],,,6 nM,50 to 500 nM
CC(C)ONc1cc(NC2CCCCC2)nn2c(-c3ccc(C(=O)NC4CC4)cc3)cnc12 [Example 2-161],5.6 nM,500 to 1000 nM,,
N#Cc1cccc(-c2cc(NCC3CCOCC3)c3ncc(-c4ccc(C(=O)NC5CC5)cc4)n3n2)c1 [Example 2-203],,,4.7 nM,50 to 500 nM
O=C(NC1CC1)c1ccc(-c2cnc3c(NCC4CCOCC4)cc(OC4CCC(C(F)(F)F)CC4)nn23)cc1 (stereo not shown) [Example 2-186],,,6.8 nM,500 to 1000 nM
COC[C@@H]1CCCN1c1cc(NCC2CCOCC2)c2ncc(-c3ccc(C(=O)NC4CC4)cc3)n2n1 [Example 2-66],4.5 nM,50 to 500 nM,,
